# Assay: Preparation and aging of 3% SnCl2.2H2O solutions with TSPP or TKPP
# Assay type: physicochemical
# Conditions: room temperature
# Method: Solutions are prepared by dissolving TSPP in deionized water (mixing under heat if necessary) and then adding 0.6 g of SnCl2.2H2O to make 20-gram solutions.
# A 3% SnCl2.2H2O solution is used as a control.
# Solutions are prepared by dissolving TKPP in deionized water (mixing under heat if necessary) and then adding 0.6 g SnCl2.2H2O to make 20-g solutions.
compound,measurement,value
"O.O.[Cl][Sn][Cl] [3% SnCl2.2H2O solution, SnCl2.2H2O]",appearance after aging overnight,form a cloudy precipitate that settles

# From patent US10292912B2, “Personal care compositions” (Colgate-Palmolive Company, priority 2015, dated 2019)
